For experiment [1], the system named is rabbit knee after ACL transection. Description: ACL transection (ACLT) osteoarthritis model in the rabbit knee, continuous intra-articular infusion. Type of experiment: in vivo. Conditions: 8 weeks after ACLT; for chondro-degenerative pathology to the knee joint: 30 mM via Alzet pump 2.5 μl/hour intra-articular, vs saline-treated animals. As to the method:
The model used in this study is the transection of the anterior cruciate ligament (ACL) in the rabbit knee. ACL transection (ACLT) causes joint instability and subsequent development of degradative and osteoarthritis-like changes.
Female New Zealand White rabbits, 3.0-3.5 kg, were used and were randomly allocated into groups of 8 rabbits. Group A was the saline-treated control group; Group B was treated with 30 mM of the hexosaminidase inhibitor (2R,3R,4R,5R)-N-methyl-(2-acetamidomethyl-3,4-dihydroxy-5-hydroxymethyl)-pyrrolidine, which is also known as OPT-66. All the compounds were delivered by a 2ml Alzet osmotic pump (Alzet 2ML4, Alza, USA). The delivery rate from the pump was 2.5 μl/hour. All rabbits received ACLT surgery on the right knee.
All rabbits were anesthetized by an intramuscular injection of ketamine (35 mg/kg) and acepromazine (2.5 mg/kg). Knees were shaved and disinfected with Antibex (Vetoquinol S.A.) solution. A medial parapatellar incision was made on the skin and a medial arthrotomy was performed. The patella was dislocated laterally and the knee was placed in full flexion. The ACL was visualized and transected with a #15 blade. Complete transection was confirmed by a manual anterior drawer test. The joint was irrigated with sterile saline then closed. Before the closure of knee joint, an Alzet pump prefilled with compounds (either with saline or with the hexosaminidase inhibitor (2R,3R,4R,5R)-N-methyl-(2-acetamidomethyl-3,4-dihydroxy-5-hydroxymethyl)-pyrrolidine, also known as OPT-66, was implanted subcutaneously in the lower right abdomen of rabbits. The pump was connected by polyethylene tubing (ID: 0.58 mm), which was inserted into the right knee joint with its tip resting in the synovial space. The joint capsule was closed with a running suture and the tubing connecting the pump was also fixed into the tissue. The skin was closed with interrupted sutures. The Alzet pumps were replaced with fresh units at the end of the fourth week after the operation.
The animals were sacrificed eight (8) weeks after ACLT. The gross morphological changes of both knees, including joint swelling and joint fluid, were evaluated.
The grading of the joint swelling is as following: 0 (normal); 1 (mild), inflammation and/or proliferation of the joint capsule; 2 (moderate), thickening of joint capsule and/or inflammation of the synovium; 3 (severe) abundant inflammation of the synovium, swelling of the menisci or ligaments (anterior or posterior cruciate ligaments).

For experiment [2], the system named is IL-1β-infused rabbit knee joint (tibial plateau cartilage). Description: IL-1β-induced sGAG loss in rabbit knee cartilage, continuous intra-articular infusion. Type of experiment: in vivo. How it is done:
Female New Zealand White rabbits, 3.0-3.5 kg, were used and were randomly allocated into groups of 8 rabbits. Under aseptic conditions, 2 ml Alzet osmotic pumps (delivery flow rate: 10 μl/h, (Alzet 2ML1, Alza, USA)) were filled with IL-1β (1000 U/ml; R&D Systems, USA). Separate 2 ml Alzet pumps were filled with 30 mM of the hexosaminidase inhibitor (2R,3R,4R,5R)-N-methyl-(2-acetamidomethyl-3,4dihydroxy-5-hydroxymethyl)-pyrrolidine, also known as OPT-66, or with saline. The Alzet pumps were implanted subcutaneously in the lower abdomen of rabbits, and were connected by a polyethylene tubing (ID: 0.025 in) threaded subcutaneously to the left knee joint with their tips resting in the synovial space. The untreated contralateral knees of all animals served as negative controls. IL-1β and (2R,3R,4R,5R)-N-methyl-(2-acetamidomethyl-3,4-diydroxy-5-hydroxymethyl)-pyrrolidine were infused intra-articularly for 7 days. Immediately before surgery, and for 3 consecutive days thereafter, Marbocyl, 6 mg/kg/day, is administered (i.m.) to prevent infection. Animals were harvested on day 7. […]
Blyscan dye (Biocolor, USA) was added to each tube and vortexed. […] The absorbance of the sample was then observed at 656 nm using a spectrophotometer. […] The absorbance of the blank was subtracted from each sample. Results are expressed as micrograms of sGAG recovered per milligram wet weight of cartilage tissue.

A further experiment deals with hexosaminidase. Conditions: read-out: Ki against hexosaminidase; cited from earlier work.
Another experiment concerns cultured chondrocytes. Conditions: cited from earlier work.

Turning to `CC(=O)NCC1C(O)[C@H](O)C(CO)N1C` (stereo partly drawn) [OPT-66, (2R,3R,4R,5R)-N-methyl-(2-acetamidomethyl-3,4-dihydroxy-5-hydroxymethyl)-pyrrolidine], the “chondro-degenerative pathology to the knee joint” value is “consistently less chondro-degenerative pathology” in experiment [1] and “chondroprotective benefit” in experiment [1] (listed as specific hexosaminidase inhibitor). For the same compound, in experiment [1] (30 mM via Alzet pump, vs saline-treated animals (FIG. 1)), the “severity of femur lesion scores” value is given as “statistically significant decrease”. Further, in experiment [1] (30 mM via Alzet pump, vs saline-treated animals (FIG. 2)), the “severity of tibia lesion scores” value is “statistically significant decrease”. Further, the joint swelling grading result in experiment [1] (30 mM via Alzet pump, vs saline-treated animals (FIG. 3)) is “trend towards decreased joint-swelling”. Moreover, the “synovial (joint) fluid grading” value in experiment [1] (30 mM via Alzet pump, vs saline-treated animals (FIG. 4)) is “normal levels of fluid in the knee joint”. Also, the “amount of recoverable sGAG per wet weight of left tibial plateau cartilage” value in experiment [2] (IL-1β 1000 U/ml plus 30 mM inhibitor infused intra-articularly for 7 days (FIG. 5)) is recorded as “approximately 41 μg/mg”. Further, the “increase of recoverable sGAG over saline-treated knees” value in experiment [2] (IL-1β plus 30 mM inhibitor infused intra-articularly for 7 days) was found to be 24%. For the same compound, at hexosaminidase, the Ki is 0.024 µM. In the experiment with cultured chondrocytes, the “cytokine-induced loss of GAGs” value was “preventing cytokine-induced loss of GAGs”.

One may read the Ki as the equilibrium dissociation constant of an inhibitor or competing ligand from its target.

The values are drawn from patent US20070197471A1, “Treatment of degenerative cartilage conditions in a mammal with Glycosidasc Inhibitors” (Optimer Pharmaceuticals, Inc., priority 2004, published 2007).
